Assay [1] deals with T1, Melatonin receptor type 1B (Homo sapiens) (UniProt P49286).
T1 sequence (whole entry): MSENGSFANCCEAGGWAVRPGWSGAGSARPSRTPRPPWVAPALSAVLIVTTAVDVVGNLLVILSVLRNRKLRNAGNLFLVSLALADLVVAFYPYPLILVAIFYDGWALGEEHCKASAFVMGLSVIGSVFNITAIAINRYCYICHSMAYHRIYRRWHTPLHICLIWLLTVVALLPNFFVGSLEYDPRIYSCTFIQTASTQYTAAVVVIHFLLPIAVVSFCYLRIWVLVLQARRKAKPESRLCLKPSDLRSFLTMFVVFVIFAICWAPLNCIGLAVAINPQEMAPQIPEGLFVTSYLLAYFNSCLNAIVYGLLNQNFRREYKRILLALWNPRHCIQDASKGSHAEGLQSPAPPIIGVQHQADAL
Put plainly: Intrinsic activity at human cloned MT2 receptor expressed in […] cells by [35S]GTP-gamma-S binding assay relative to melatonin. In kind it is functional, cell-based. A general note: GTPγS resists hydrolysis and so accumulates on activated G proteins.

Assay [2] addresses T2, Melatonin receptor type 1A (Homo sapiens, UniProt P48039). Put plainly: Intrinsic activity at human cloned MT1 receptor expressed in […] cells by [35S]GTP-gamma-S binding assay relative to melatonin. It counts as functional, cell-based.
For assay [3], the target named is T2, Melatonin receptor type 1A. Put plainly: Displacement of 2-[125I]iodomelatonin from human cloned MT1 receptor expressed in […] cells. In kind it is cell-based.
The target in assay [4] is T3, Melatonin receptor type 1B (Homo sapiens, UniProt P49286).
T3 sequence (P49286 whole entry): T1 sequence (whole entry)
Put plainly: Displacement of 2-[125I]iodomelatonin from human cloned MT2 receptor expressed in […] cells. It counts as cell-based.

The structures appear in SMILES notation.

T2 sequence (P48039 whole entry): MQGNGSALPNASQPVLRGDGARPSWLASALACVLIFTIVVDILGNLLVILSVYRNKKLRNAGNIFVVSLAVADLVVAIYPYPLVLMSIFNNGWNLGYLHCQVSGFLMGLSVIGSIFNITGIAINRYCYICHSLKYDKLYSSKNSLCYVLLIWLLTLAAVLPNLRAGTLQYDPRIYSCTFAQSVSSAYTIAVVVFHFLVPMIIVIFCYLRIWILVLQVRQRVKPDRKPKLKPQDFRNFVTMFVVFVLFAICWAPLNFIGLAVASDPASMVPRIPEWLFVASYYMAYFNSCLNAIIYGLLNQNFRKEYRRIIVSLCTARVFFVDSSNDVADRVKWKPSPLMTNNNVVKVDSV

One may read the Ki as a measure of affinity in units of concentration, obtained from inhibition or displacement. The low end stands for higher affinity, the high end for lower affinity. Regarding `COc1ccc2[nH]c(C(=O)OCCCCCOC(=O)c3[nH]c4ccc(OC)cc4c3CCNC(C)=O)c(CCNC(C)=O)c2c1`, the results for the Intrinsic activity in assay [1] and in assay [2] were 0.93 and 1, respectively. Besides, the Ki was determined as 20.1 nM in assay [3] and 62.4 nM in assay [4].
In the case of `COc1ccc2[nH]c(C(=O)OCCCCCCCCCCOC(=O)c3[nH]c4ccc(OC)cc4c3CCNC(C)=O)c(CCNC(C)=O)c2c1`, the Intrinsic activity in assay [1] stood at 0.65; in assay [2] it was 0.79. Further, the Ki in assay [3] was determined as 24.2 nM; in assay [4] it was 15.4 nM.
The corresponding values for `COc1ccc2[nH]c(C(=O)OCCCCCCCOC(=O)c3[nH]c4ccc(OC)cc4c3CCNC(C)=O)c(CCNC(C)=O)c2c1` are 0.08, 0.35, 215 nM and 65 nM.
Consider `COc1ccc2[nH]c(C(=O)OCCCOC(=O)c3[nH]c4ccc(OC)cc4c3CCNC(C)=O)c(CCNC(C)=O)c2c1`, for which the Intrinsic activity in assay [1] came out at 0.8; in assay [2] it was 0.77. For the same compound, the inhibitory constant (Ki) in assay [3] came out at 9.5 nM; in assay [4] it was 14.3 nM.
The corresponding values for `COc1ccc2[nH]c(C(=O)OCCCCCCCCCOC(=O)c3ccccc3)c(CCNC(C)=O)c2c1` are 0.38, 0.75, 83 nM and 20 nM.
On to `COc1ccc2[nH]cc(CCNC(=O)CCCCCC(=O)NCCc3c[nH]c4ccc(OC)cc34)c2c1`, for which the values for the Intrinsic activity in assay [1] and in assay [2] were 0.26 and 0.35, respectively. In addition, the inhibition constant (Ki) was 6470 nM in assay [3] and 7290 nM in assay [4].
For `CCCCCOC(=O)c1[nH]c2ccc(OC)cc2c1CCNC(C)=O`, in that order: 0.23, 0.06, 70.1 nM and 4.8 nM.
The corresponding values for `COc1ccc2[nH]cc(CCNC(=O)CCCCCCCCC(=O)NCCc3c[nH]c4ccc(OC)cc34)c2c1` are 0.79, 0.81, 387 nM and 573 nM.
The corresponding values for `COc1ccc2[nH]c(C(=O)OCCCCCCCCCOC(=O)c3[nH]c4ccc(OC)cc4c3CCNC(C)=O)c(CCNC(C)=O)c2c1` are -0.17, 0.33, 59.8 nM and 7.75 nM.
On to `COc1ccc2[nH]c(C(=O)OCCCCCCCCCCCCOC(=O)c3[nH]c4ccc(OC)cc4c3CCNC(C)=O)c(CCNC(C)=O)c2c1`, for which the figures for the Intrinsic activity in assay [1] and in assay [2] were 0.64 and 0.72, respectively. Also, the Ki in assay [3] stood at 25.4 nM; in assay [4], 44 nM.
Turning to `COc1ccc2[nH]c(C(=O)OCCCCCCCCOC(=O)c3[nH]c4ccc(OC)cc4c3CCNC(C)=O)c(CCNC(C)=O)c2c1`, the Intrinsic activity was determined as 0.9 in assay [1] and 1 in assay [2]. For the same compound, the inhibition constant (Ki) in assay [3] amounted to 7.91 nM; in assay [4], 7.92 nM.
